{"source": "paper PMC7714403", "about": "(JCI Insight, 2020)", "test_in_all_cases": "KiNativ, MOLM13 live cells", "type_in_all_cases": "cell-based", "key": {"GSK3A": {"target": "GSK3A (Homo sapiens, UniProt P49840)", "sequence (P49840 whole entry)": "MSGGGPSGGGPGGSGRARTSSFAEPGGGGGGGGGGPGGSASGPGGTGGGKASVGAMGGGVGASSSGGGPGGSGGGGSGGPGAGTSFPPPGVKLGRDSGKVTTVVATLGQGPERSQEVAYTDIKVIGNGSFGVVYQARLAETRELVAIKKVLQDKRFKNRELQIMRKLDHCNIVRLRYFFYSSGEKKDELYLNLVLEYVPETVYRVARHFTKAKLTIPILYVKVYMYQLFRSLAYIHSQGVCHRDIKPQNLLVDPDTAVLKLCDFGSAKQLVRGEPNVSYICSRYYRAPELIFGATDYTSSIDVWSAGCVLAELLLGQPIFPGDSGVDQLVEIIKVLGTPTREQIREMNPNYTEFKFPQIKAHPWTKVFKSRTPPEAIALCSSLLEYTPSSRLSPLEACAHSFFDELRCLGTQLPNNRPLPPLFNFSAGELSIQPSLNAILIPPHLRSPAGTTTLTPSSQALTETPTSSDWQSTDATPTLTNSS", "conditions": "MOLM-13; 100 nM, 2 hours; Lys2; read-out: Inhibition vs DMSO", "method": "(§1) Samples were analyzed by KiNativ in situ kinase profiling by ActivX Biosciences."}, "CHK2": {"target": "CHK2 (Homo sapiens, UniProt O96017)", "sequence (O96017 whole entry)": "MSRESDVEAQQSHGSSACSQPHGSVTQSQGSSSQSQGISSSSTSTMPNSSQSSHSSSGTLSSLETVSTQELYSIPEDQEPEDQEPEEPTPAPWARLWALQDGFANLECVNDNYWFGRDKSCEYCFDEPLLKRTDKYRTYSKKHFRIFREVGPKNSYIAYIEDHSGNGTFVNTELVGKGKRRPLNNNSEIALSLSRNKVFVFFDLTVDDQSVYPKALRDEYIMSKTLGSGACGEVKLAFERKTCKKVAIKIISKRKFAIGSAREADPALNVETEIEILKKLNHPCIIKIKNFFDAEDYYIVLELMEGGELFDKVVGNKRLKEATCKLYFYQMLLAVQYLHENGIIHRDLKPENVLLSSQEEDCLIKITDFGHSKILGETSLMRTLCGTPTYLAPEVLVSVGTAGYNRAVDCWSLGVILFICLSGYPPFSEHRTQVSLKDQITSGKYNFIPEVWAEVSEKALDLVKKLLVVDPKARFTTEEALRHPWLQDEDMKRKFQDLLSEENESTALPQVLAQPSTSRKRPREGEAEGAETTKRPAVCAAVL", "conditions": "MOLM-13, 2 h, 100 nM", "method": "as §1"}, "CDK6": {"target": "CDK6 (Homo sapiens, UniProt Q00534)", "sequence (Q00534 whole entry)": "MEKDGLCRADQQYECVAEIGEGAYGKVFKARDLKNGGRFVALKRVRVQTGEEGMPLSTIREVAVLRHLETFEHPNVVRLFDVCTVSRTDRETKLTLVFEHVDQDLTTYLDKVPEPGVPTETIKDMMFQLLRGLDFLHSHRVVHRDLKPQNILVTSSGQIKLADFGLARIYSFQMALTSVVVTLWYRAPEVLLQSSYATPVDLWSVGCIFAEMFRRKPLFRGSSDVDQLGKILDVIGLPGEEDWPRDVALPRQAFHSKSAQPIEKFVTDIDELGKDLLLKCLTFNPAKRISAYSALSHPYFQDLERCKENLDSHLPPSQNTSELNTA", "conditions": "MOLM-13; 100 nM, 2 hours; Lys2; read-out: Inhibition vs DMSO", "method": "as §1"}, "GCN2 domain2": {"target": "T1, GCN2 domain2 (Homo sapiens, UniProt Q9P2K8)", "T1 construct": "GCN2 domain2", "T1 sequence (Q9P2K8 whole entry, the tested form may be a part)": "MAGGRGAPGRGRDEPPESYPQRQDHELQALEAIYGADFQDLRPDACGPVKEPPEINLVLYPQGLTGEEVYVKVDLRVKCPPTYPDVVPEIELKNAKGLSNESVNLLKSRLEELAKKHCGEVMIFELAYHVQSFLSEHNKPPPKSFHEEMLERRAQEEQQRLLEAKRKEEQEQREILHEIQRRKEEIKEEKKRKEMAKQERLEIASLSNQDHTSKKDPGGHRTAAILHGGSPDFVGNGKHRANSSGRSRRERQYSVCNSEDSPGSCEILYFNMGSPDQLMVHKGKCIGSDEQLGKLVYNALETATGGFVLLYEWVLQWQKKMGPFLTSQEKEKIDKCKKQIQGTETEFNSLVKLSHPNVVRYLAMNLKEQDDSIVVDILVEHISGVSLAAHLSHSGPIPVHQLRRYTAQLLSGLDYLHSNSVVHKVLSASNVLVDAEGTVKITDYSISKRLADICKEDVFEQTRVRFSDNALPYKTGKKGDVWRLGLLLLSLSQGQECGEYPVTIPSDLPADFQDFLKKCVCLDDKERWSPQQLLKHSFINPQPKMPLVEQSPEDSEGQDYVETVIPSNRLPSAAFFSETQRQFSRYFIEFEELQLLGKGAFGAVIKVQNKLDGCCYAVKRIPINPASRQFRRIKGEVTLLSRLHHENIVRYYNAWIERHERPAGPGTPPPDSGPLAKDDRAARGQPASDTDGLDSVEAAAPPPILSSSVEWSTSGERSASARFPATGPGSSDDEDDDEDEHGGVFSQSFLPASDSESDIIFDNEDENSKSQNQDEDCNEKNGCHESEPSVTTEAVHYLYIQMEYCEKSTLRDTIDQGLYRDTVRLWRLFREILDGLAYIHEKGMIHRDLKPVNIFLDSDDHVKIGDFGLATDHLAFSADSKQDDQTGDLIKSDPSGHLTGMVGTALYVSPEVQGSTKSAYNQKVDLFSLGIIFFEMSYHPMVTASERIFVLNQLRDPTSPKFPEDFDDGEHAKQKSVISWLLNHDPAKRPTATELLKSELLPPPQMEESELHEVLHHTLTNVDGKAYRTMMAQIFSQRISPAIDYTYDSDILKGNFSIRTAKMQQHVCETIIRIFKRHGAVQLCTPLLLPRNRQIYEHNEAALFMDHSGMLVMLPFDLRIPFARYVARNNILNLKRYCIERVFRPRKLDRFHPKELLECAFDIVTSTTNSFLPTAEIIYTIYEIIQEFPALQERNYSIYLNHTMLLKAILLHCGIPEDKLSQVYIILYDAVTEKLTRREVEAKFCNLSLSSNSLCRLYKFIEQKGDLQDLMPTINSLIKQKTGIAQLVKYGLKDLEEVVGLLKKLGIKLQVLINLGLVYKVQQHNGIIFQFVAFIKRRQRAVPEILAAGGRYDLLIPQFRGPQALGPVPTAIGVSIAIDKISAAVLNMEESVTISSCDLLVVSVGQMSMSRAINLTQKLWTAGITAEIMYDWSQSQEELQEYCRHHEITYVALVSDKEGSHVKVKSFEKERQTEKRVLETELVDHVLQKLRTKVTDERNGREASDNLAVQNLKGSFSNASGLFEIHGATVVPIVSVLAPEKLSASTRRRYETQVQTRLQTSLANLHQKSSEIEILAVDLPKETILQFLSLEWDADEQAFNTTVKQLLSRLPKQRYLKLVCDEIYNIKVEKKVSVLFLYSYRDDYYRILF", "conditions": "MOLM-13, 2 h, 100 nM", "method": "as §1"}, "Erk1": {"target": "Erk1 (Homo sapiens, UniProt P27361)", "conditions": "MOLM-13; 100 nM, 2 hours; Lys2; read-out: Inhibition vs DMSO", "method": "as §1"}, "IKKe": {"target": "IKKe (Homo sapiens, UniProt Q14164)", "conditions": "MOLM-13; 100 nM, 2 hours; Lys1; read-out: Inhibition vs DMSO", "method": "as §1"}, "PIK3CB": {"target": "PIK3CB (Homo sapiens, UniProt P42338)", "conditions": "MOLM-13; 100 nM, 2 hours; ATP; read-out: Inhibition vs DMSO", "method": "as §1"}, "CDK5": {"target": "CDK5 (Homo sapiens, UniProt Q00535)", "sequence (Q00535 whole entry)": "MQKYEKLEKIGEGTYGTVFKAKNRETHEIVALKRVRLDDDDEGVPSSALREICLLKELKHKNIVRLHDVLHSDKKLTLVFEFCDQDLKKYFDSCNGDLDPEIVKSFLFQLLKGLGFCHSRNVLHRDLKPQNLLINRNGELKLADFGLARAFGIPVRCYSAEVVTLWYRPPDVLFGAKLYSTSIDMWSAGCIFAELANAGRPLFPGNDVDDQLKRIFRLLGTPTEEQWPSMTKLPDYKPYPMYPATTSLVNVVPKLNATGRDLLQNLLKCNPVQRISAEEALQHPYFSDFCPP", "conditions": "MOLM-13, 2 h, 100 nM", "method": "as §1"}, "p38b": {"target": "p38b (Homo sapiens, UniProt Q15759)", "conditions": "MOLM-13; 100 nM, 2 hours; Other; read-out: Inhibition vs DMSO", "method": "as §1"}, "RSK1 domain1": {"target": "T2, RSK1 domain1 (Homo sapiens, UniProt Q15418)", "T2 construct": "RSK1 domain1", "T2 sequence (Q15418 whole entry, the tested form may be a part)": "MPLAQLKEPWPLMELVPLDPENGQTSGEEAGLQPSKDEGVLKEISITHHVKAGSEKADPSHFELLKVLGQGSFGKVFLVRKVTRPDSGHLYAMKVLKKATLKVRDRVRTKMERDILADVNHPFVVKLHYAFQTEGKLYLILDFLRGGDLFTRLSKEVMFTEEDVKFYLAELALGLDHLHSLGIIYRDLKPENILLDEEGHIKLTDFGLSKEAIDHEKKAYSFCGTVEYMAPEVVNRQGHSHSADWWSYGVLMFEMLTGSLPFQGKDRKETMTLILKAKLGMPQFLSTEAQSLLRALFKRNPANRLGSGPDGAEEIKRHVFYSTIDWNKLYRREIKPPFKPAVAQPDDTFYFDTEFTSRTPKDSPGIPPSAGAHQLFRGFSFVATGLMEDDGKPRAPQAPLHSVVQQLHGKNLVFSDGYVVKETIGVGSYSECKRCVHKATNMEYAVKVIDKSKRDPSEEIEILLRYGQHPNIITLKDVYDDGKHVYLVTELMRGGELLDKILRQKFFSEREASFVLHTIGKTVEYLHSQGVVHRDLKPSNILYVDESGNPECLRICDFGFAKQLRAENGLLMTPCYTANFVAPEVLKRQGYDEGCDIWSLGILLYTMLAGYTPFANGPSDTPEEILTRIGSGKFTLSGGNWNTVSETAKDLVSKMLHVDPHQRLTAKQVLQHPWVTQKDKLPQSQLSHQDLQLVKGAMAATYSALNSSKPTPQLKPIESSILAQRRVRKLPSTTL", "conditions": "MOLM-13; 100 nM, 2 hours; Activation Loop; read-out: Inhibition vs DMSO", "method": "as §1"}, "PIK3C3": {"target": "PIK3C3 (Homo sapiens, UniProt Q8NEB9)", "sequence (Q8NEB9 whole entry)": "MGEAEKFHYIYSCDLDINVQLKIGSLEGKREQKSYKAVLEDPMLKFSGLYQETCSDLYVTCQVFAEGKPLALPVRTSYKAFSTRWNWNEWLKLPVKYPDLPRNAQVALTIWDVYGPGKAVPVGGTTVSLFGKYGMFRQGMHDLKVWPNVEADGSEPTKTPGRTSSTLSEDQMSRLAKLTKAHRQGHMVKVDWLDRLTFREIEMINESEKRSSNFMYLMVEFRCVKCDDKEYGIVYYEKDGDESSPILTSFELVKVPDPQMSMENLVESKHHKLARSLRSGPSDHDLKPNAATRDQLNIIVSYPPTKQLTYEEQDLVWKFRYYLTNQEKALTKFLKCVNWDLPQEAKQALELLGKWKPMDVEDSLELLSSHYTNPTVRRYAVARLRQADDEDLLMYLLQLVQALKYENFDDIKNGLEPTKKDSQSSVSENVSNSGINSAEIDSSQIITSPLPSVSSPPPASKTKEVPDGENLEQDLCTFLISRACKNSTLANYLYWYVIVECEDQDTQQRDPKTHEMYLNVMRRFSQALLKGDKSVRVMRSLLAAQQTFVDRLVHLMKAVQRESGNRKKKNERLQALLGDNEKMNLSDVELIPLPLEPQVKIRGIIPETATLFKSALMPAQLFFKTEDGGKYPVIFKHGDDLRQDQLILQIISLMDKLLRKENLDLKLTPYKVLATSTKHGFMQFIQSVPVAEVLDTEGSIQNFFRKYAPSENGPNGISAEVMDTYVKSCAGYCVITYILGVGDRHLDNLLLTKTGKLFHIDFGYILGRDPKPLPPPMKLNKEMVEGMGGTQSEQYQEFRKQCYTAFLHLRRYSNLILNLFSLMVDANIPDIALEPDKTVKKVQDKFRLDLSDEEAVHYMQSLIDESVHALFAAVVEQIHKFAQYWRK", "conditions": "MOLM-13, 2 h, 100 nM, ATP, read-out: Inhibition vs DMSO", "method": "as §1"}, "MAP3K1": {"target": "MAP3K1 (Homo sapiens, UniProt Q13233)", "conditions": "MOLM-13; 100 nM, 2 hours; Lys2; read-out: Inhibition vs DMSO", "method": "as §1"}, "GCK": {"target": "T3, GCK (Homo sapiens, UniProt Q12851)", "T3 sequence (Q12851 1-820)": "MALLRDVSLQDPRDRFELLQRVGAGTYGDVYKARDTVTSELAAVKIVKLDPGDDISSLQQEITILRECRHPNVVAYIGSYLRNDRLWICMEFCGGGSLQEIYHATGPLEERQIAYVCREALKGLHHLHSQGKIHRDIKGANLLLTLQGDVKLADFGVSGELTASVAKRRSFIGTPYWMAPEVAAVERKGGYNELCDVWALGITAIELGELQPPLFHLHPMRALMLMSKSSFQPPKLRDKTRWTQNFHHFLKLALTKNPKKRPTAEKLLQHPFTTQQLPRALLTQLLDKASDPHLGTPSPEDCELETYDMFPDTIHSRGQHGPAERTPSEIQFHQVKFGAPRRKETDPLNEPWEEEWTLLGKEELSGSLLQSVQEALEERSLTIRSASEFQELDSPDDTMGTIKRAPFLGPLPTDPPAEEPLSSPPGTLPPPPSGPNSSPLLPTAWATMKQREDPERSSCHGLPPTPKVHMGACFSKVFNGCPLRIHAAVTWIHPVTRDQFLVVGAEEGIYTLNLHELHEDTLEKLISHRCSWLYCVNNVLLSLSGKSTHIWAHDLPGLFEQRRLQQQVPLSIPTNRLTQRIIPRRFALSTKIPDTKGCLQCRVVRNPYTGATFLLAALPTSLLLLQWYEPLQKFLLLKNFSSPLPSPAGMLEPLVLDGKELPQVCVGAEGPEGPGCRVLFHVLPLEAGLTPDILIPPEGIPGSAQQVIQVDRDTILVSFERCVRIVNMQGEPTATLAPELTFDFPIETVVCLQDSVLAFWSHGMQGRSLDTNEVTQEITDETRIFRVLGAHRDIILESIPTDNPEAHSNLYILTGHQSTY", "conditions": "MOLM-13; 100 nM, 2 hours; Lys2; read-out: Inhibition vs DMSO", "method": "as §1"}, "[1]": {"conditions": "Lys1, read-out: Inhibition vs DMSO"}, "[2]": {"conditions": "Lys2, read-out: Inhibition vs DMSO"}}, "note": "Where two headings read alike, the source gives them in different places."}
{"smiles": "CN1CCN(Cc2ccc(Nc3ncc(Cl)c(Nc4ccccc4S(=O)(=O)N(C)C)n3)cc2)CC1", "note": "[TP-0903]", "values": [{"measurement": "inhibition at 0.1 µM", "setting": "GSK3A", "value": -8.9, "unit": "%"}, {"measurement": "inhibition at 0.1 µM", "setting": "CHK2; [1]", "value": 11.3, "unit": "%"}, {"measurement": "inhibition at 0.1 µM", "setting": "CHK2; [2]", "value": -23.4, "unit": "%"}, {"measurement": "inhibition at 0.1 µM", "setting": "CDK6", "value": 80.8, "unit": "%"}, {"measurement": "inhibition at 0.1 µM", "setting": "GCN2 domain2; [1]", "value": -22.2, "unit": "%"}, {"measurement": "inhibition at 0.1 µM", "setting": "GCN2 domain2; [2]", "value": -33.5, "unit": "%"}, {"measurement": "inhibition at 0.1 µM", "setting": "Erk1", "value": -2.8, "unit": "%"}, {"measurement": "inhibition at 0.1 µM", "setting": "IKKe", "value": 19.3, "unit": "%"}, {"measurement": "inhibition at 0.1 µM", "setting": "PIK3CB", "value": -0.9, "unit": "%"}, {"measurement": "inhibition at 0.1 µM", "setting": "CDK5; [1]", "value": 31.9, "unit": "%"}, {"measurement": "inhibition at 0.1 µM", "setting": "CDK5; [2]", "value": 20.7, "unit": "%"}, {"measurement": "inhibition at 0.1 µM", "setting": "p38b", "value": -5, "unit": "%"}, {"measurement": "inhibition at 0.1 µM", "setting": "RSK1 domain1", "value": -3.8, "unit": "%"}, {"measurement": "inhibition at 0.1 µM", "setting": "PIK3C3; TEDGGKYPVIFKHGDDLR", "value": -23.9, "unit": "%"}, {"measurement": "inhibition at 0.1 µM", "setting": "PIK3C3; TEDGGKYPVIFKHGDDLRQDQLILQIISLMDK", "value": 2.6, "unit": "%"}, {"measurement": "inhibition at 0.1 µM", "setting": "MAP3K1", "value": 55.7, "unit": "%"}, {"measurement": "inhibition at 0.1 µM", "setting": "GCK", "value": 29.8, "unit": "%"}]}
